{"source": "PubChem BioAssay AID1259407", "about": "(Chemical Carcinogenesis Research Information System (CCRIS), 2018)", "tested_on": "CCRIS mutagenicity, Ames/micronucleus/aberration tests", "experiment": "CCRIS mutagenicity studies", "key": {"[1]": {"details": "Test System: AMES SALMONELLA TYPHIMURIUM, Strain/Indicator: TA98, Metabolic Activation: NONE, Method: PREINCUBATION"}, "[2]": {"details": "Test System: AMES SALMONELLA TYPHIMURIUM, Strain/Indicator: TA100, Metabolic Activation: NONE, Method: PREINCUBATION"}, "[3]": {"details": "Test System: AMES SALMONELLA TYPHIMURIUM, Strain/Indicator: TA100, Metabolic Activation: NONE, Method: STANDARD PLATE"}}, "note": "Calls of active or inactive are those of the source. How the calls were made is not given here."}
{"compound": "Nc1cc(C(=O)O)c(O)c(S(=O)(=O)O)c1", "values": [{"measurement": "mutagenic call", "setting": "Test System: AMES SALMONELLA TYPHIMURIUM, Strain/Indicator: TA97, Metabolic Activation: HAMSTER, LIVER, S-9, AROCLOR 1254 (10 OR 30%), Method: PREINCUBATION", "value": "inactive; negative"}, {"measurement": "mutagenic call", "setting": "Test System: AMES SALMONELLA TYPHIMURIUM, Strain/Indicator: TA97, Metabolic Activation: NONE, Method: PREINCUBATION", "value": "inactive; negative"}, {"measurement": "mutagenic call", "setting": "Test System: AMES SALMONELLA TYPHIMURIUM, Strain/Indicator: TA97, Metabolic Activation: RAT, LIVER, S-9, AROCLOR 1254 (10%), Method: PREINCUBATION", "value": "inactive; negative"}, {"measurement": "mutagenic call", "setting": "Test System: AMES SALMONELLA TYPHIMURIUM, Strain/Indicator: TA97, Metabolic Activation: RAT, LIVER, S-9, AROCLOR 1254 (30%), Method: PREINCUBATION", "value": "inactive; negative"}, {"measurement": "mutagenic call", "setting": "Test System: AMES SALMONELLA TYPHIMURIUM, Strain/Indicator: TA98, Metabolic Activation: HAMSTER, LIVER, S-9, AROCLOR 1254 (10 OR 30%), Method: PREINCUBATION", "value": "inactive; negative"}, {"measurement": "mutagenic call", "setting": "[1]", "value": "inactive; negative"}, {"measurement": "mutagenic call", "setting": "Test System: AMES SALMONELLA TYPHIMURIUM, Strain/Indicator: TA98, Metabolic Activation: RAT, LIVER, S-9, AROCLOR 1254 (10 OR 30%), Method: PREINCUBATION", "value": "inactive; negative"}, {"measurement": "mutagenic call", "setting": "Test System: AMES SALMONELLA TYPHIMURIUM, Strain/Indicator: TA100, Metabolic Activation: HAMSTER, LIVER, S-9, AROCLOR 1254 (10 OR 30%), Method: PREINCUBATION", "value": "inactive; negative"}, {"measurement": "mutagenic call", "setting": "[2]", "value": "inactive; negative"}, {"measurement": "mutagenic call", "setting": "Test System: AMES SALMONELLA TYPHIMURIUM, Strain/Indicator: TA100, Metabolic Activation: RAT, LIVER, S-9, AROCLOR 1254 (10 OR 30%), Method: PREINCUBATION", "value": "inactive; negative"}, {"measurement": "mutagenic call", "setting": "Test System: AMES SALMONELLA TYPHIMURIUM, Strain/Indicator: TA1535, Metabolic Activation: HAMSTER, LIVER, S-9, AROCLOR 1254 (10 OR 30%), Method: PREINCUBATION", "value": "inactive; negative"}, {"measurement": "mutagenic call", "setting": "Test System: AMES SALMONELLA TYPHIMURIUM, Strain/Indicator: TA1535, Metabolic Activation: NONE, Method: PREINCUBATION", "value": "inactive; negative"}, {"measurement": "mutagenic call", "setting": "Test System: AMES SALMONELLA TYPHIMURIUM, Strain/Indicator: TA1535, Metabolic Activation: RAT, LIVER, S-9, AROCLOR 1254 (10 OR 30%), Method: PREINCUBATION", "value": "inactive; negative"}, {"measurement": "mutagenic call", "setting": "Test System: AMES SALMONELLA TYPHIMURIUM, Strain/Indicator: TA1537, Metabolic Activation: HAMSTER, LIVER, S-9, AROCLOR 1254 (10 OR 30%), Method: PREINCUBATION", "value": "inactive; negative"}, {"measurement": "mutagenic call", "setting": "Test System: AMES SALMONELLA TYPHIMURIUM, Strain/Indicator: TA1537, Metabolic Activation: NONE, Method: PREINCUBATION", "value": "inactive; negative"}, {"measurement": "mutagenic call", "setting": "Test System: AMES SALMONELLA TYPHIMURIUM, Strain/Indicator: TA1537, Metabolic Activation: RAT, LIVER, S-9, AROCLOR 1254 (10 OR 30%), Method: PREINCUBATION", "value": "inactive; negative"}]}
{"compound": "CC(C)CCC[C@@H](C)[C@H]1CC[C@H]2[C@@H]3C[C@@H]4N(N5C(=O)c6ccccc6C5=O)[C@@]45C[C@@H](Cl)CC[C@]5(C)[C@H]3CC[C@]12C", "note": "(stereo partly drawn)", "values": [{"measurement": "mutagenic call", "setting": "Test System: AMES SALMONELLA TYPHIMURIUM, Strain/Indicator: TA97A, Metabolic Activation: NONE, Method: STANDARD PLATE", "value": "inactive; negative"}, {"measurement": "mutagenic call", "setting": "[3]", "value": "inactive; negative"}, {"measurement": "mutagenic call", "setting": "Test System: AMES SALMONELLA TYPHIMURIUM, Strain/Indicator: TA102, Metabolic Activation: NONE, Method: STANDARD PLATE", "value": "inactive; negative"}, {"measurement": "mutagenic call", "setting": "Test System: AMES SALMONELLA TYPHIMURIUM, Strain/Indicator: TA104, Metabolic Activation: NONE, Method: STANDARD PLATE", "value": "inactive; negative"}]}
{"compound": "CCC(=O)OCc1ccc([N+](=O)[O-])cc1", "values": [{"measurement": "mutagenic call", "setting": "[1]", "value": "inactive; negative"}, {"measurement": "mutagenic call", "setting": "Test System: AMES SALMONELLA TYPHIMURIUM, Strain/Indicator: TA100(NR), Metabolic Activation: NONE, Method: PREINCUBATION", "value": "inactive; negative"}, {"measurement": "mutagenic call", "setting": "[2]", "value": "active; positive"}, {"measurement": "mutagenic call", "setting": "Test System: AMES SALMONELLA TYPHIMURIUM, Strain/Indicator: TA100, Metabolic Activation: RAT, LIVER, S-9, AROCLOR 1254, Method: PREINCUBATION", "value": "active; positive"}]}
{"compound": "NNc1ccn([C@@H]2O[C@H](CO)[C@@H](O)[C@H]2O)c(=O)n1", "values": [{"measurement": "mutagenic call", "setting": "Test System: CHINESE HAMSTER V-79, Strain/Indicator: V-79/6-THIOGUANINE, Metabolic Activation: NONE, Method: REPLATING", "value": "active; positive"}]}
{"compound": "COc1cccc(C=O)c1", "values": [{"measurement": "mutagenic call", "setting": "Test System: MOUSE LYMPHOMA, Strain/Indicator: L5178Y (TK+/TK-), Metabolic Activation: NONE, Method: SUSPENSION/PLATE", "value": "inactive; negative"}]}
{"compound": "O=[N+]([O-])c1ccc2c(c1)Oc1cc([N+](=O)[O-])ccc1O2", "values": [{"measurement": "mutagenic call", "setting": "Test System: AMES SALMONELLA TYPHIMURIUM, Strain/Indicator: TA98(1,8-DNP6), Metabolic Activation: NONE, Method: PREINCUBATION", "value": "active; positive"}, {"measurement": "mutagenic call", "setting": "Test System: AMES SALMONELLA TYPHIMURIUM, Strain/Indicator: TA98(1,8-DNP6), Metabolic Activation: NONE, Method: SUSPENSION", "value": "active; positive"}, {"measurement": "mutagenic call", "setting": "Test System: AMES SALMONELLA TYPHIMURIUM, Strain/Indicator: TA98(1,8-DNP6), Metabolic Activation: RAT, LIVER, S-9, PCB (5%), Method: PREINCUBATION", "value": "active; positive"}, {"measurement": "mutagenic call", "setting": "Test System: AMES SALMONELLA TYPHIMURIUM, Strain/Indicator: TA98(NR), Metabolic Activation: NONE, Method: PREINCUBATION", "value": "inactive; negative"}, {"measurement": "mutagenic call", "setting": "Test System: AMES SALMONELLA TYPHIMURIUM, Strain/Indicator: TA98(NR), Metabolic Activation: NONE, Method: SUSPENSION", "value": "inactive; negative"}, {"measurement": "mutagenic call", "setting": "Test System: AMES SALMONELLA TYPHIMURIUM, Strain/Indicator: TA98(NR), Metabolic Activation: RAT, LIVER, S-9 (15%), Method: PREINCUBATION", "value": "active; positive"}, {"measurement": "mutagenic call", "setting": "Test System: AMES SALMONELLA TYPHIMURIUM, Strain/Indicator: TA98(NR), Metabolic Activation: RAT, LIVER, S-9, 3-METHYLCHOLANTHRENE (15%), Method: PREINCUBATION", "value": "active; positive"}, {"measurement": "mutagenic call", "setting": "Test System: AMES SALMONELLA TYPHIMURIUM, Strain/Indicator: TA98(NR), Metabolic Activation: RAT, LIVER, S-9, BETA-NAPHTHOFLAVONE (15%), Method: PREINCUBATION", "value": "active; positive"}, {"measurement": "mutagenic call", "setting": "Test System: AMES SALMONELLA TYPHIMURIUM, Strain/Indicator: TA98(NR), Metabolic Activation: RAT, LIVER, S-9, PCB (5 OR 15%), Method: PREINCUBATION", "value": "active; positive"}, {"measurement": "mutagenic call", "setting": "Test System: AMES SALMONELLA TYPHIMURIUM, Strain/Indicator: TA98(NR), Metabolic Activation: RAT, LIVER, S-9, PHENOBARBITAL (15%), Method: PREINCUBATION", "value": "active; positive"}, {"measurement": "mutagenic call", "setting": "[1]", "value": "active; positive"}, {"measurement": "mutagenic call", "setting": "Test System: AMES SALMONELLA TYPHIMURIUM, Strain/Indicator: TA98, Metabolic Activation: NONE, Method: SUSPENSION", "value": "active; positive"}, {"measurement": "mutagenic call", "setting": "Test System: AMES SALMONELLA TYPHIMURIUM, Strain/Indicator: TA98, Metabolic Activation: RAT, LIVER, S-9, PCB (5%), Method: PREINCUBATION", "value": "active; positive"}, {"measurement": "mutagenic call", "setting": "Test System: AMES SALMONELLA TYPHIMURIUM, Strain/Indicator: TA98, Metabolic Activation: RAT, LIVER, S-9, PCB, Method: SUSPENSION", "value": "active; positive"}, {"measurement": "mutagenic call", "setting": "[2]", "value": "inactive; negative"}, {"measurement": "mutagenic call", "setting": "Test System: AMES SALMONELLA TYPHIMURIUM, Strain/Indicator: TA100, Metabolic Activation: NONE, Method: SUSPENSION", "value": "inactive; negative"}, {"measurement": "mutagenic call", "setting": "Test System: AMES SALMONELLA TYPHIMURIUM, Strain/Indicator: TA100, Metabolic Activation: RAT, LIVER, S-9, PCB (5%), Method: PREINCUBATION", "value": "inactive; negative"}, {"measurement": "mutagenic call", "setting": "Test System: AMES SALMONELLA TYPHIMURIUM, Strain/Indicator: TA100, Metabolic Activation: RAT, LIVER, S-9, PCB, Method: SUSPENSION", "value": "active; positive"}]}
{"compound": "CC(=O)Nc1ccc(Oc2ccc(N)cc2)cc1", "values": [{"measurement": "mutagenic call", "setting": "Test System: AMES SALMONELLA TYPHIMURIUM, Strain/Indicator: TA98, Metabolic Activation: NONE, Method: STANDARD PLATE", "value": "inactive; negative"}, {"measurement": "mutagenic call", "setting": "Test System: AMES SALMONELLA TYPHIMURIUM, Strain/Indicator: TA98, Metabolic Activation: RAT, LIVER, S-9, PCB, Method: STANDARD PLATE", "value": "active; positive"}, {"measurement": "mutagenic call", "setting": "[3]", "value": "inactive; negative"}, {"measurement": "mutagenic call", "setting": "Test System: AMES SALMONELLA TYPHIMURIUM, Strain/Indicator: TA100, Metabolic Activation: RAT, LIVER, S-9, PCB, Method: STANDARD PLATE", "value": "active; positive"}]}
